Structures can show the parent of a compound that is named as a salt. Where two headings read alike, the source gives them in different places.
Assays:
[1] = tested on: E. coli ΔtolC; assay: MIC by broth microdilution (CLSI); format: cell-based; settings: Escherichia coli, 24 h, read-out: MIC E. coli ΔtolC, ΔtolC; CaMHB, 24 h incubation
Procedure, shortened: (§1)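 Lowest concentration (μg/mL) without visible bacterial growth after 24 h was taken as MIC, using CLSI microdilution at 5×10^5 CFU/mL in CaMHB. Chelex 100 treatment of the broth applied only to P. aeruginosa.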

[2] = tested on: S. aureus ATCC 29213 (HAV#001); assay: MIC by broth microdilution (CLSI); format: cell-based; settings: Staphylococcus aureus, ATCC29213, 24 h, read-out: MIC S. aureus ATCC 29213
Procedure, shortened: as §1

[3] = tested on: E. coli lptD mutant; assay: MIC by broth microdilution (CLSI); format: cell-based; settings: Escherichia coli, 24 h, read-out: MIC E. coli lptD mutant, lptD mutant / ΔlptD mutant; CaMHB, 24 h incubation
Procedure, shortened: as §1

[4] = tested on: K. pneumoniae JMI-991193; assay: MIC by broth microdilution (CLSI); format: cell-based; settings: Klebsiella pneumoniae, JMI991193, 24 h, read-out: MIC K. pneumoniae JMI-991193
Procedure, shortened: as §1

[5] = tested on: E. coli Clinical (armA); assay: MIC by broth microdilution (CLSI); format: cell-based; settings: Escherichia coli, 24 h, read-out: MIC E. coli Clinical (armA)
Procedure, shortened: as §1

[6] = tested on: E. faecalis ATCC 29212 (HAV#005); assay: MIC by broth microdilution (CLSI); format: cell-based; settings: Enterococcus faecalis, ATCC29212, 24 h, read-out: MIC E. faecalis ATCC 29212
Procedure, shortened: as §1

[7] = tested on: E. coli ATCC 25922 (HAV#006); assay: MIC by broth microdilution (CLSI); format: cell-based; settings: Escherichia coli, ATCC25922, 24 h, read-out: MIC E. coli ATCC 25922
Procedure, shortened: as §1

[8] = tested on: S. aureus MMX 3035; assay: MIC by broth microdilution (CLSI); format: cell-based; settings: Staphylococcus aureus, MMX3035, 24 h, read-out: MIC S. aureus MMX 3035
Procedure, shortened: as §1

[9] = tested on: S. aureus Clinical (cfr); assay: MIC by broth microdilution (CLSI); format: cell-based; settings: Staphylococcus aureus, 24 h, read-out: MIC S. aureus Clinical (cfr)
Procedure, shortened: as §1

[10] = tested on: A. baumannii ATCC 19606 (HAV#010); assay: MIC by broth microdilution (CLSI); format: cell-based; settings: Acinetobacter baumannii, ATCC19606, 24 h, HAV#010, ATCC 19606; CaMHB, 24 h incubation; read-out: MIC A. baumannii ATCC 19606
Procedure, shortened: as §1

[11] = tested on: E. coli HAV#040, LptD; assay: MIC by broth microdilution (CLSI); format: cell-based; settings: Escherichia coli, 24 h, read-out: MIC E. coli HAV#040, LptD
Procedure, shortened: as §1

[12] = tested on: K. pneumoniae HAV#402, FQ-R; assay: MIC by broth microdilution (CLSI); format: cell-based; settings: Klebsiella pneumoniae; FQ-R; CaMHB, 24 h incubation; read-out: MIC K. pneumoniae HAV#402, FQ-R
Procedure, shortened: as §1

[13] = tested on: S. aureus HAV#031, c-ermA; assay: MIC by broth microdilution (CLSI); format: cell-based; settings: Staphylococcus aureus; c-ermA; CaMHB, 24 h incubation; read-out: MIC S. aureus HAV#031, c-ermA
Procedure, shortened: as §1

[14] = tested on: S. aureus HAV#216, cfr; assay: MIC by broth microdilution (CLSI); format: cell-based; settings: Staphylococcus aureus; cfr; CaMHB, 24 h incubation; read-out: MIC S. aureus HAV#216, cfr
Procedure, shortened: as §1

[15] = tested on: E. coli HAV#038, ΔTolC; assay: MIC by broth microdilution (CLSI); format: cell-based; settings: Escherichia coli, 24 h, read-out: MIC E. coli HAV#038, ΔTolC
Procedure, shortened: as §1

[16] = tested on: E. faecium HAV#318, VRE; clinical; assay: MIC by broth microdilution (CLSI); format: cell-based; settings: Enterococcus faecium, CaMHB, 24 h incubation, read-out: MIC E. faecium HAV#318, VRE
Procedure, shortened: as §1

[17] = rcm bond, Grubbs II (20 mol%)/benzoquinone, toluene
[18] = HAV#001, ATCC 29213, CaMHB, 24 h incubation
[19] = HAV#005, ATCC 29212, CaMHB, 24 h incubation
[20] = HAV#006, ATCC 25922, CaMHB, 24 h incubation

Compound	MIC [1]	MIC [2]	MIC [3]	MIC [4]	MIC [5]	MIC [6]	MIC [7]	MIC [8]	MIC [9]	MIC [10]	MIC [2, 18]	MIC [11]	MIC [12]	MIC [13]	MIC [14]	MIC [15]	MIC [7, 20]	other results
CC(C)C[C@@H]1CCO[C@@H]2[C@H](CN[C@@H]2C(=O)N[C@@H]2C/C=C\C[C@H](CN)S[C@H]3O[C@H]2[C@H](O)[C@H](O)[C@H]3O)C1 [FSA1608082, (4S,5aS,8S,8aR)—N-((1R,3R,8R,9R,10R,11S,12R,Z)-3-(aminomethyl)-10,11,12-trihydroxy-13-oxa-2-thiabicyclo[7.3.1]tridec-5-en-8-yl)-4-isobutyloctahydro-2H-oxepino[2,3-c]pyrrole-8-carboxamide hydrochloride salt]	2 µg/mL	1 µg/mL	1 µg/mL	> 64 µg/mL	64 µg/mL	2 µg/mL	32 µg/mL	16 µg/mL	16 µg/mL	–	–	–	–	–	–	–	–	–
CC(C)C[C@@H]1CCO[C@@H]2[C@H](CN[C@@H]2C(=O)N[C@H]2[C@H]3O[C@H](SCCCCC2(C)C)[C@H](O)[C@@H](O)[C@H]3O)C1 [FSA1504068, (4S,5aS,8S,8aR)-4-isobutyl-N-((1R,8R,9R,10R,11S,12R)-10,11,12-trihydroxy-7,7-dimethyl-13-oxa-2-thiabicyclo[7.3.1]tridecan-8-yl) octahydro-2H-oxepino[2,3-c]pyrrole-8-carboxamide formate salt]	–	–	–	–	–	–	–	–	–	> 64 µg/mL	0.5 µg/mL	64 µg/mL	> 64 µg/mL	> 64 µg/mL	> 64 µg/mL	32 µg/mL	64 µg/mL	MIC [6, 19]: 2 µg/mL
CC(C)C[C@@H]1CCO[C@@H]2[C@H](CN[C@@H]2C(=O)N[C@@H]2C/C=C\C[C@@H](CNC(=O)c3ccc(F)cc3)S[C@H]3O[C@H]2[C@H](O)[C@H](O)[C@H]3O)C1 [FSA1608088, (4S,5aS,8S,8aR)—N-((1R,3S,8R,9R,10R,11S,12R,Z)-3-((4-fluorobenzamido)methyl)-10,11,12-trihydroxy-13-oxa-2-thiabicyclo[7.3.1]tridec-5-en-8-yl)-4-isobutyloctahydro-2H-oxepino[2,3-c]pyrrole-8-carboxamide formate salt]	2 µg/mL	1 µg/mL	0.5 µg/mL	32 µg/mL	16 µg/mL	1 µg/mL	8 µg/mL	8 µg/mL	8 µg/mL	–	–	–	–	–	–	–	–	–
CC(C)C[C@@H]1CCO[C@@H]2[C@H](CN[C@@H]2C(=O)N[C@H]2C3OC(SC/C=C\CC2(C)C)C(O)C(O)C3O)C1 (single isomer, unassigned) [FSA1504066B, formate salt]	–	–	–	–	–	–	–	–	–	64 µg/mL	0.5 µg/mL	64 µg/mL	64 µg/mL	32 µg/mL	> 64 µg/mL	32 µg/mL	64 µg/mL	MIC [16]: 4 µg/mL
CC(=O)O[C@@H]1[C@H](OC(C)=O)[C@@H](OC(C)=O)[C@@H]2O[C@@H]1[C@H](N[S@](=O)C(C)(C)C)C(C)/C=C/CCCS2 (mixture of isomers)	–	–	–	–	–	–	–	–	–	–	–	–	–	–	–	–	–	ring closure, isolated yield ([17]; from C=CCCCS[C@H]1O[C@H]([C@H](N[S@](=O)C(C)(C)C)[C@H](C)C=C)[C@H](OC(C)=O)[C@H](OC(C)=O)[C@H]1OC(C)=O, 11-membered ring, 1.9 mM, 0.25 h): 85%
CC(=O)O[C@@H]1[C@H](OC(C)=O)[C@@H](OC(C)=O)[C@@H]2O[C@@H]1[C@H](N[S@](=O)C(C)(C)C)C(C)/C=C\CCCCS2 (stereo partly shown)	–	–	–	–	–	–	–	–	–	–	–	–	–	–	–	–	–	ring closure, isolated yield ([17]; from C=CCCCCS[C@H]1O[C@H]([C@H](N[S@](=O)C(C)(C)C)[C@H](C)C=C)[C@H](OC(C)=O)[C@H](OC(C)=O)[C@H]1OC(C)=O, 12-membered ring, 2.0 mM, 0.25 h): 6.3%
CC(C)C[C@@H]1CCO[C@@H]2[C@H](CN[C@@H]2C(=O)N[C@H]2[C@H]3O[C@H](S[C@H](CF)C/C=C\[C@H]2C)[C@H](O)[C@@H](O)[C@H]3O)C1 [FSA1609034, (4S,5aS,8S,8aR)—N-((1R,3S,7R,8R,9R,10R,11S,12R,Z)-3-(fluoromethyl)-10,11,12-trihydroxy-7-methyl-13-oxa-2-thiabicyclo[7.3.1]tridec-5-en-8-yl)-4-isobutyloctahydro-2H-oxepino[2,3-c]pyrrole-8-carboxamide formate salt]	≤ 0.06 µg/mL	≤ 0.06 µg/mL	0.25 µg/mL	2 µg/mL	2 µg/mL	≤ 0.06 µg/mL	1 µg/mL	0.25 µg/mL	0.25 µg/mL	–	–	–	–	–	–	–	–	–
CC(C)C[C@@H]1CCO[C@@H]2[C@H](CN[C@@H]2C(=O)N[C@H]2[C@H]3OC(SC/C=C/CC2(C)C)[C@H](O)C(O)C3O)C1 (single isomer, unassigned) [FSA1504066A, formate salt]	–	–	–	–	–	–	–	–	–	8 µg/mL	≤ 0.06 µg/mL	2 µg/mL	32 µg/mL	4 µg/mL	> 64 µg/mL	1 µg/mL	32 µg/mL	MIC [16]: 1 µg/mL
CC(C)C[C@@H]1CCO[C@@H]2[C@H](CN[C@@H]2C(=O)N[C@@H]2CC(C)(C)/C=C/CS[C@H]3O[C@H]2[C@H](O)[C@H](O)[C@H]3O)C1 [FSA1503085, (4S,5aS,8S,8aR)-4-isobutyl-N-((1R,8R,9R,10R,11S,12R,E)-10,11,12-trihydroxy-6,6-dimethyl-13-oxa-2-thiabicyclo[7.3.1]tridec-4-en-8-yl) octahydro-2H-oxepino[2,3-c]pyrrole-8-carboxamide formate salt]	–	–	–	–	–	–	–	–	–	64 µg/mL	0.25 µg/mL	8 µg/mL	> 64 µg/mL	32 µg/mL	8 µg/mL	4 µg/mL	64 µg/mL	MIC [6, 19]: 0.25 µg/mL
C[C@H]1/C=C/CCS[C@H]2O[C@H]([C@@H]1N[S@](=O)C(C)(C)C)[C@H](OC(=O)c1ccccc1)[C@H](OC(=O)c1ccccc1)[C@H]2OC(=O)c1ccccc1	–	–	–	–	–	–	–	–	–	–	–	–	–	–	–	–	–	ring closure, isolated yield ([17]; from C=CCCS[C@H]1O[C@H]([C@H](N[S@](=O)C(C)(C)C)[C@@H](C)C=C)[C@H](OC(=O)c2ccccc2)[C@H](OC(=O)c2ccccc2)[C@H]1OC(=O)c1ccccc1, 10-membered ring, 0.2 mM, 0.33 h): 6%
CC(C)C[C@@H]1CCO[C@@H]2[C@H](CN[C@@H]2C(=O)N[C@@H]2C/C=C\C[C@H](CNC(=O)c3ccc(F)cc3)S[C@H]3O[C@H]2[C@H](O)[C@H](O)[C@H]3O)C1 [FSA1608089, (4S,5aS,8S,8aR)—N-((1R,3R,8R,9R,10R,11S,12R,Z)-3-((4-fluorobenzamido)methyl)-10,11,12-trihydroxy-13-oxa-2-thiabicyclo[7.3.1]tridec-5-en-8-yl)-4-isobutyloctahydro-2H-oxepino[2,3-c]pyrrole-8-carboxamide formate salt]	2 µg/mL	2 µg/mL	1 µg/mL	> 64 µg/mL	64 µg/mL	1 µg/mL	16 µg/mL	8 µg/mL	8 µg/mL	–	–	–	–	–	–	–	–	–
C[C@@H]1/C=C\CCS[C@H]2O[C@H]([C@@H]1N[S@](=O)C(C)(C)C)[C@H](OC(=O)c1ccccc1)[C@H](OC(=O)c1ccccc1)[C@H]2OC(=O)c1ccccc1	–	–	–	–	–	–	–	–	–	–	–	–	–	–	–	–	–	ring closure, isolated yield ([17]; from C=CCCS[C@H]1O[C@H]([C@H](N[S@](=O)C(C)(C)C)[C@H](C)C=C)[C@H](OC(=O)c2ccccc2)[C@H](OC(=O)c2ccccc2)[C@H]1OC(=O)c1ccccc1, 10-membered ring, 0.2 mM, 0.33 h): 19%
